Assay results from patent US20020107193A1, “Therapeutic uses for IP3 receptor-mediated calcium channel modulators” (priority 2000, published 2002).

What was measured:
IP3 receptor = details: Gafni et al., 1997; cited from earlier work
NF-κB [1] = test: Cell-free EMSA of NF-κB binding activity in brain cortex cytoplasmic fraction; type: biochemical, rat; details: 1 h; calcium 1 μM to 10 mM; 10 μM BAPTA-AM alone or with 10 μM calcium
Description: (§1) Total cell extracts were prepared as described (Baeuerle and Baltimore, 1988, Cell 53:211-217). Briefly, cells were harvested, washed twice with ice-cold PBS and lysed for 30 min at 4° C. in Totex buffer (20 mM HEPES, pH 7.9, 350 mM NaC1, 20% glycerol, 1% NP-40, 1 mM MgC12, 0.5 mM EDTA, 0.1 mM EGTA, 5 mM DTT, 0.1% PMSF, 1% aprotinin, 4 μg/ml leupeptin). Samples were centrifuged at 14,000× g for 10 min and aliquots of supernatant were collected and stored at −70° C. until taken for assay. The protein content of the extract (supernatant) was measured by Bradford method (BIO-RAD Laboratories, Ercules, Calif., USA). […]
(§2) After 20 min at room temperature, reaction products were separated on a 7% non-denaturing polyacrylamide gel. […] Radioactivity of dried gels was detected by exposure to Kodak X-Omat film and images on the developed film were scanned into a computer using a UMAX 1200s scanner. […]

[2] = test system: IP3 receptors on microsomes; test: Microsome extract (MSE) effect on cytoplasmic NF-κB binding activity; type: biochemical, rat; details: direct activation of IP3 receptors on microsomes with IP3
Description: Cerebral cortices from adult female Sprague-Dawley rats were homogenized (20 strokes at 300 rpm) with a Teflon homogenizer in ice-cold buffer containing 1 mM EDTA, 0.32 M sucrose, 0.1 mM dithiothreitol and 1 mM HEPES as described previously (Chen et al., 1998, Diabetes 47:874-81) and cytoplasmic and microsome fractions were isolated by differential centrifugation. Briefly, tissue fragments and cellular debris were removed by centrifugation at 500 g for 10 min and supernatants were centrifuged at 20,000 g for 20 min to pellet intact mitochondria and nuclei. The supernatant was then centrifuged at 100,000 g for 1 h in order to obtain the cytoplasmic fraction and the microsomal pellet enriched in endoplasmic reticulum and golgi membranes. Microsome extracts (MSE) were prepared by suspending microsomes in 1:100 v/v ice-cold buffer and centrifuging at 100,000× g for 1 hr. Microsomes were then re-suspended in 1:2 v/v volume buffer and treated as described below. At the end of the treatment, the suspension was centrifuged at 100,000 g for 1 h, and supernatants were used as MSE. For experiments involving incubation of MSE with cytoplasmic extract, 3 μl of MSE were added to 10 μl cytoplasmic extract and mixtures were incubated at room temperature for 1 h.
[…] After 1 h at room temperature, samples were examined for NF-κB binding activity.
Indeed, the role calcium plays in this paradigm seems to be as an intraluminal signal.

NF-κB [3] = test: EMSA of NF-κB binding activity in cultured primary cortical neurons; type: cell-based, rat; details: 6 h; for induction of NF-κB binding activity by the agent alone: cortical neurons, 100 ng/ml TNFα, 100 nM Tg or 20 μM glutamate
Description: Cerebral cortices were removed from embryonic day 18 Sprague-Dawley rats (Harlan, Indianapolis, Ind.). Cells were dissociated as described previously (Mattson et al., 1995, J. Neurochem. 65:1740-1751.) and were seeded into polyethyleneimine-coated 60 mm culture dishes containing Eagle's Minimum Essential Medium supplemented with 26 mM NaHCO3, 40 mM glucose, 20 mM KCl, 1 mM sodium pyruvate, 10% (v/v) heat-inactivated fetal bovine serum (Sigma, St. Louis, Mo.), and 0.001% gentamycin sulfate. After a 3-5 h incubation period to allow for cell attachment, the medium was replaced with 2 ml of Neurobasal Medium with B27 supplements (GIBCO Life Technologies, Grand Island, N.Y.). […] Experimental treatments were performed on 7-to-9-day-old neuronal cultures in which there were approximately 5% contaminating glial cells.
Total cell extracts were prepared as described (Baeuerle and Baltimore, 1988, Cell 53:211-217). Briefly, cells were harvested, washed twice with ice-cold PBS and lysed for 30 min at 4° C. in Totex buffer (20 mM HEPES, pH 7.9, 350 mM NaC1, 20% glycerol, 1% NP-40, 1 mM MgC12, 0.5 mM EDTA, 0.1 mM EGTA, 5 mM DTT, 0.1% PMSF, 1% aprotinin, 4 μg/ml leupeptin). Samples were centrifuged at 14,000× g for 10 min and aliquots of supernatant were collected and stored at −70° C. until taken for assay. The protein content of the extract (supernatant) was measured by Bradford method (BIO-RAD Laboratories, Ercules, Calif., USA).
After 20 min at room temperature, reaction products were separated on a 7% non-denaturing polyacrylamide gel. Competition experiments were performed by incubating extracts with labeled oligonucleotide probe in the presence of 100-fold molar excess unlabeled NF-KB or CREB oligonucleotide. To characterize the NF-KB complexes, supershift assays were performed. Extracts were preincubated for 45 min at room temperature with antibodies recognizing either p50 or p65 sub-units of NF-κB (Santa Cruz Biotechnology, Santa Cruz, Calif.) or c-Fos (Oncogene Research Products, Cambridge, Mass.). The mixtures were further incubated with ^32P-labeled probe and resolved as described above. Radioactivity of dried gels was detected by exposure to Kodak X-Omat film and images on the developed film were scanned into a computer using a UMAX 1200s scanner. Densitometry was performed using Scion Image software (Scion Inc., Frederick, Md.). Paint Shop Pro software (JASC Inc. Minneapolis, Minn.) was used for preparation of the final figures.
(§3) The possible involvement of endoplasmic reticulum pools of intracellular calcium regulated by IP3 receptors in controlling basal levels of NF-κB was investigated using Xestospongin C (XeC) a specific membrane permeable modulator of IP3-mediated Ca^2+release (Gafni et al., 1997, Neuron 19:723-733; Hu et al., 1999, J. Biol. Chem. 274:33995-33998), and thapsigargin (Tg), a specific inhibitor of ER calcium/ATPase (Thastrup et al., 1990, Proc. Natl. Acad. Sci. USA 87:2466-2470; Davidson and Varhol, 1995, J. Biol. Chem. 270:11731-11734.). Cultured primary cortical neurons were treated with either 1 μM XeC, 100 nM Tg or vehicle for 6 h and protein extracts were analyzed for NF-κB binding activity by EMSA electrophoresis.

CREB [4] = test: EMSA of CREB binding activity in cultured primary cortical neurons; type: cell-based, rat
Description: Cerebral cortices were removed from embryonic day 18 Sprague-Dawley rats (Harlan, Indianapolis, Ind.). Cells were dissociated as described previously (Mattson et al., 1995, J. Neurochem. 65:1740-1751.) and were seeded into polyethyleneimine-coated 60 mm culture dishes containing Eagle's Minimum Essential Medium supplemented with 26 mM NaHCO3, 40 mM glucose, 20 mM KCl, 1 mM sodium pyruvate, 10% (v/v) heat-inactivated fetal bovine serum (Sigma, St. Louis, Mo.), and 0.001% gentamycin sulfate. After a 3-5 h incubation period to allow for cell attachment, the medium was replaced with 2 ml of Neurobasal Medium with B27 supplements (GIBCO Life Technologies, Grand Island, N.Y.). Previous observations have shown that greater than 80% of the cells that attach in the first few hours after plating will survive longer than 7 days in Neurobasal Medium with no additional neurotrophic factors. Experimental treatments were performed on 7-to-9-day-old neuronal cultures in which there were approximately 5% contaminating glial cells.
as §1, §2, §3

CREB [5] = test: Cell-free EMSA of CREB binding activity in brain cortex cytoplasmic fraction; type: biochemical, rat; details: calcium 10 μM, 100 μM and 1 mM, 1 h
Description: as §1, §2

C1CCC[C@H]2CCCN3CC[C@H](CCCCCC[C@H]4CCCN5CC[C@H](CC1)O[C@H]45)O[C@H]23 [ArB, Araguspongine B]
block of IP3-mediated calcium release (IP3 receptor): potent blockers

CC(=O)OCOC(=O)CN(CC(=O)OCOC(C)=O)c1ccccc1OCCOc1ccccc1N(CC(=O)OCOC(C)=O)CC(=O)OCOC(C)=O [BAPTA-AM]
NF-κB binding activity in cytoplasmic fraction (NF-κB [1]): had no affect

O[C@@]12CCCCCC[C@H]3CCN4CCC[C@@H](CCCCCC[C@H]5CCN(CCC1)[C@@H]2O5)[C@H]4O3 [DMXeB, demethylxestospongin B]
block of IP3-mediated calcium release (IP3 receptor): potent blockers

O=P(O)(O)O[C@@H]1[C@H](O)[C@H](O)[C@@H](OP(=O)(O)O)[C@H](OP(=O)(O)O)[C@H]1O [IP3, inositol-1,4,5 triphosphate, reference compound]
NF-κB stimulating properties of MSE from treated microsomes [2]: NF-κB stimulating properties similar to that seen with Tg

C/C=C(/C)C(=O)O[C@H]1C(C)=C2[C@H]([C@@H]1OC(=O)CCCCCCC)[C@@](C)(OC(C)=O)C[C@H](OC(=O)CCC)[C@@]1(O)[C@H]2OC(=O)[C@@]1(C)O [Tg, thapsigargin, reference compound]
induction of NF-κB binding activity by the agent alone (NF-κB [3]): Induction of NF-κB binding activity was observed
basal NF-κB binding activity relative to control levels (NF-κB [3]; cultured primary cortical neurons, 1 μM XeC or 100 nM Tg, EMSA): statistically significant (p<0.05) elevation
CREB binding activity (CREB [4]; cultured primary cortical neurons, 6 h, 1 μM XeC or 100 nM Tg, data not shown): slightly augmented CREB binding activity; however, this was not statistically significant

O[C@@]12CCCCCC[C@H]3CCN4CCC[C@H](CCCCCC[C@H]5CCN(CCC1)[C@@H]2O5)[C@H]4O3 [XeD]
block of IP3-mediated calcium release (IP3 receptor): potent blockers

[Ca+2] [calcium]
NF-κB binding activity in cytoplasmic fraction (NF-κB [1]): none of the calcium concentrations used increased NF-κB binding activity
CREB binding activity in cytoplasmic fraction (CREB [5]): greatly enhanced

tumor necrosis factor α [TNFα, reference compound]
induction of NF-κB binding activity by the agent alone (NF-κB [3]): statistically significant (p<0.05) enhancement
binding activity of CREB, agent alone (CREB [4]; cortical neurons, XeC 30 min pretreatment, 100 ng/ml TNFα 6 h, FIG. 2a): neither TNFα nor XeC alone affected the binding activity of CREB
